Assays:
Test in all cases: 33PanQinase panel
Type in all cases: biochemical
[1] = biological target: T1, ABL2 (Homo sapiens, UniProt P42684); conditions: ABL2, 1 µM; read-out: Residual Activity (%)
T1 construct: purchased ProQinase
Method: (§1) Figure 5 Dendrogram representation of the selectivity profile of 29d at a concentration of 1 μM in a panel of 320 wild-type kinases (ProQinase, Freiburg, Germany). The residual kinase activity was determined compared to DMSO control. Images were generated using TREEspot Software Tool, DISCOVERX CORPORATION 2010.
(§2) Figure S1. X-ray crystal structure of intermediate compound 25d (ORTEP drawing with ellipsoids at 30% probability). CCDC 1589043 contains the supplementary crystallographic data for this paper. The data can be obtained free of charge from The Cambridge Crystallographic Data Centre via www.ccdc.cam.ac.uk/structures.
(§3) Table S1 Data collection, structure refinement and Ramachrandran plot results of protein crystallization of CK1δ in complex with compound 30a and 30b, respectively.
(§4) Root-mean-square deviations
(§5) Additionally allowed 2.6 2.2
(§6) Table S2. Selectivity profile of compound 29d. The inhibitor has been screened at a concentration of 1 µM over a panel of 320 wild-type protein kinases by ProQinase GmbH (Freiburg, Germany) using an activity-based radiometric 33PanQinase® assay. Results are presented as percentage of residual kinase activity relative to […]
(§7) control. The final DMSO concentration was 1 % in each reaction-mix. Classification of protein kinase families refers to Manning et al. (Manning, G.; Whyte, D. B.; Martinez, R.; Hunter, T.; Sudarsanam, S. The Protein Kinase Complement of the Human Genome. Science 2002, 298, 1912–1934): AGC = containing PKA, PKG, PKC families; […] = containing Cdk, MAPK, GSK3, CLK families; STE = homologs of yeast sterile 7, sterile 11, sterile 20 kinases; TK = tyrosine kinase; TKL = tyrosine kinase-like.
(§8) Kinase name Kinase family Residual Activity (%)

[2] = biological target: T2, ARK5 (Homo sapiens, UniProt O60285); conditions: ARK5, 1 µM; read-out: Residual Activity (%)
T2 construct: purchased ProQinase
Method: as §1, §2, §3, §4, §5, §6, §7, §8

[3] = biological target: T3, BUB1B (Homo sapiens, UniProt O60566); conditions: read-out: Residual Activity (%)
T3 construct: purchased ProQinase
Method: as §1, §2, §3, §4, §5, §6, §7, §8

[4] = biological target: T4, CDK16/CycY (Homo sapiens, UniProt Q00536); conditions: read-out: Residual Activity (%)
T4 construct: purchased ProQinase
Method: as §1, §2, §3, §4, §5, §6, §7, §8

[5] = biological target: T5, CDK9/CycT1 (Homo sapiens, UniProt P50750); conditions: CDK9/CycT1, 1 µM; read-out: Residual Activity (%)
T5 construct: purchased ProQinase
T5 sequence (P50750 whole entry): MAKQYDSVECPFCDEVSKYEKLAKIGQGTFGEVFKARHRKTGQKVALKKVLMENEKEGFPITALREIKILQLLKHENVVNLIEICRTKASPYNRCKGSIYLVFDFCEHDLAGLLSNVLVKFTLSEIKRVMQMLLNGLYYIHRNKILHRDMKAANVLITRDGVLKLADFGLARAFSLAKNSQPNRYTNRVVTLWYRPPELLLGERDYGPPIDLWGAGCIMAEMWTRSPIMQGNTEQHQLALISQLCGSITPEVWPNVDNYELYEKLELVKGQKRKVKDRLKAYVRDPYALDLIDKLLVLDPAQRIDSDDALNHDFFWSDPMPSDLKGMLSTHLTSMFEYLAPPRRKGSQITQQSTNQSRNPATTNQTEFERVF
T5 sequence (O60563 whole entry partner): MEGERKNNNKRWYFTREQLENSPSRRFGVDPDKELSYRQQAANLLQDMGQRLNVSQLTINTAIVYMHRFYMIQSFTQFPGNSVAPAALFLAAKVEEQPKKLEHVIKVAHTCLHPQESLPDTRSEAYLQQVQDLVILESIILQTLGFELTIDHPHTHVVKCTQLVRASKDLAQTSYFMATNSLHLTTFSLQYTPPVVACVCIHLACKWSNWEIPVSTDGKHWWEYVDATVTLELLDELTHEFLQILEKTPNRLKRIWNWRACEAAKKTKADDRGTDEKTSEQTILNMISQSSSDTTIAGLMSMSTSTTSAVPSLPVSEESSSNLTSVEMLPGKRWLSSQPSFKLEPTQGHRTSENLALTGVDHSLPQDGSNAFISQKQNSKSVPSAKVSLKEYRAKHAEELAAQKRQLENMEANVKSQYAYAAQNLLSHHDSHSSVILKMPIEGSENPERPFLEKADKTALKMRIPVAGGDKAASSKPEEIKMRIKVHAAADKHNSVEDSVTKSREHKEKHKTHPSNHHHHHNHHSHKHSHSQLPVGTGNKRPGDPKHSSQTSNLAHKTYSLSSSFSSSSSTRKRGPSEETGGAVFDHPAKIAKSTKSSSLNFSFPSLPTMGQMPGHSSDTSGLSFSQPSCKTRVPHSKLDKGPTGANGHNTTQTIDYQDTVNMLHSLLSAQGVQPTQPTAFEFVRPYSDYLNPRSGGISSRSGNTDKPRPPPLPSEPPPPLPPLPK
Method: as §1, §2, §3, §4, §5, §6, §7, §8

[6] = biological target: T6, CK1-gamma3 (Homo sapiens, UniProt Q9Y6M4); conditions: CK1-gamma3, 1 µM; read-out: Residual Activity (%)
T6 construct: purchased ProQinase
Method: as §1, §2, §3, §4, §5, §6, §7, §8

[7] = biological target: T7, CLK1 (Homo sapiens, UniProt P49759); conditions: CLK1, 1 µM; read-out: Residual Activity (%)
T7 construct: purchased ProQinase
T7 sequence (P49759 whole entry): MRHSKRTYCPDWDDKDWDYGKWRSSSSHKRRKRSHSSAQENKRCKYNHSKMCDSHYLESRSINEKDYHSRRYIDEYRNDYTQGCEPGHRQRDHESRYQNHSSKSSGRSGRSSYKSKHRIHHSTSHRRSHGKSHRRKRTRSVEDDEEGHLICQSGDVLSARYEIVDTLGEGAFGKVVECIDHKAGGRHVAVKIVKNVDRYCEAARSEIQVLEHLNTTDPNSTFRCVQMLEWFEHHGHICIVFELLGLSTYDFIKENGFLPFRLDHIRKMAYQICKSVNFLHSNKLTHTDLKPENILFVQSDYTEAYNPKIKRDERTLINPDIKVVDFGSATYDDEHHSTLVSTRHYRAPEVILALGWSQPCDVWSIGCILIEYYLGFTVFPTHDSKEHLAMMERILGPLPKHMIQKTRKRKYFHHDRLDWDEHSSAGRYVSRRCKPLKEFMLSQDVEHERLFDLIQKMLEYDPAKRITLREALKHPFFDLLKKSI
Method: as §1, §2, §3, §4, §5, §6, §7, §8

[8] = biological target: T8, CLK4 (Homo sapiens, UniProt Q9HAZ1); conditions: CLK4, 1 µM; read-out: Residual Activity (%)
T8 construct: purchased ProQinase
T8 sequence (Q9HAZ1 whole entry): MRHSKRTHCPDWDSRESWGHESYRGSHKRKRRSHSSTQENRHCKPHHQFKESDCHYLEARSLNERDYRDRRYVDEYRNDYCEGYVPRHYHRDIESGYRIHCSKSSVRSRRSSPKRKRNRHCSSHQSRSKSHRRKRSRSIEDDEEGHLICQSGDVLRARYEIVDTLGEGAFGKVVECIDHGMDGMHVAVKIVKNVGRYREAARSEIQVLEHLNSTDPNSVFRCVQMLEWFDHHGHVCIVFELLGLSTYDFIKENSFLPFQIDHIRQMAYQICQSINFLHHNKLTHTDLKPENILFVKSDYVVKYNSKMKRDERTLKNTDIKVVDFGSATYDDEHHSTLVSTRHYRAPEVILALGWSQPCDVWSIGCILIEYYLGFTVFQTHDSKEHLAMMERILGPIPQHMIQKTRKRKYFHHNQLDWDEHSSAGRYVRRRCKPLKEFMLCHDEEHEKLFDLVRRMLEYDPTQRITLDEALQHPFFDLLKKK
Method: as §1, §2, §3, §4, §5, §6, §7, §8

[9] = biological target: T9, DYRK4 (Homo sapiens, UniProt Q9NR20); conditions: DYRK4, 1 µM; read-out: Residual Activity (%)
T9 construct: purchased ProQinase
Method: as §1, §2, §3, §4, §5, §6, §7, §8

[10] = biological target: T10, EIF2AK3 (Homo sapiens, UniProt Q9NZJ5); conditions: EIF2AK3, 1 µM; read-out: Residual Activity (%)
T10 construct: purchased ProQinase
Method: as §1, §2, §3, §4, §5, §6, §7, §8

[11] = biological target: T11, EPHB3 (Homo sapiens, UniProt P54753); conditions: EPHB3, 1 µM; read-out: Residual Activity (%)
T11 construct: purchased ProQinase
Method: as §1, §2, §3, §4, §5, §6, §7, §8

[12] = biological target: T12, ERBB4 (Homo sapiens, UniProt Q15303); conditions: ERBB4, 1 µM; read-out: Residual Activity (%)
T12 construct: purchased ProQinase
Method: as §1, §2, §3, §4, §5, §6, §7, §8

[13] = biological target: T13, FGF-R2 (Homo sapiens, UniProt P21802); conditions: FGF-R2, 1 µM; read-out: Residual Activity (%)
T13 construct: purchased ProQinase
Method: as §1, §2, §3, §4, §5, §6, §7, §8

[14] = biological target: T14, MAP3K11 (Homo sapiens, UniProt Q16584); conditions: MAP3K11, 1 µM; read-out: Residual Activity (%)
T14 construct: purchased ProQinase
T14 sequence (Q16584 whole entry): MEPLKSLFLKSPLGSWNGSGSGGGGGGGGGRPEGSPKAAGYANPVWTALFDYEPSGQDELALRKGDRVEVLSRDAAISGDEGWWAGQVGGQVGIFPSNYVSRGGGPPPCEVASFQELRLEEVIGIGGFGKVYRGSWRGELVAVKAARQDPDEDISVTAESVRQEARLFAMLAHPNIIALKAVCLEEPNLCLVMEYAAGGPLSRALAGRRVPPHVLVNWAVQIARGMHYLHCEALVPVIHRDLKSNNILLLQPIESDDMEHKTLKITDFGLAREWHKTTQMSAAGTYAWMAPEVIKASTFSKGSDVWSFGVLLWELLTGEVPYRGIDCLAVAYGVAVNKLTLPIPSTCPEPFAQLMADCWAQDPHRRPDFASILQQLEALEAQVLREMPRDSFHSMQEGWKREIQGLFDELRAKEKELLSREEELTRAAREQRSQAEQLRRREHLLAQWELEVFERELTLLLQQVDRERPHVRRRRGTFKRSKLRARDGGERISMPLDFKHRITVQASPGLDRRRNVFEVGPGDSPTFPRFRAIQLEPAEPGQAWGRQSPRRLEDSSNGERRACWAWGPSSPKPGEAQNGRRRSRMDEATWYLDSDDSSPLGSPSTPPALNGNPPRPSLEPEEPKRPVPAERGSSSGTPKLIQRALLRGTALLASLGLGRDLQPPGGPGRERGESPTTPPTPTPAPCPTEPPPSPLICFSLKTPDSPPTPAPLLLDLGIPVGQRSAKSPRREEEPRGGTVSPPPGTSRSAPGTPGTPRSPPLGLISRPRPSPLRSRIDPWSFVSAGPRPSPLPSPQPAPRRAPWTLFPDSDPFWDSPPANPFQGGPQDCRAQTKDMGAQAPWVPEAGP
Method: as §1, §2, §3, §4, §5, §6, §7, §8

[15] = biological target: T15, MEK2 (Homo sapiens, UniProt P36507); conditions: MEK2, 1 µM; read-out: Residual Activity (%)
T15 construct: purchased ProQinase
Method: as §1, §2, §3, §4, §5, §6, §7, §8

[16] = biological target: T16, NEK3 (Homo sapiens, UniProt P51956); conditions: NEK3, 1 µM; read-out: Residual Activity (%)
T16 construct: purchased ProQinase
Method: as §1, §2, §3, §4, §5, §6, §7, §8

[17] = biological target: T17, NEK4 (Homo sapiens, UniProt P51957); conditions: NEK4, 1 µM; read-out: Residual Activity (%)
T17 construct: purchased ProQinase
Method: as §1, §2, §3, §4, §5, §6, §7, §8

[18] = biological target: T18, PHKG1 (Homo sapiens, UniProt Q16816); conditions: PHKG1, 1 µM; read-out: Residual Activity (%)
T18 construct: purchased ProQinase
T18 sequence (Q16816 whole entry): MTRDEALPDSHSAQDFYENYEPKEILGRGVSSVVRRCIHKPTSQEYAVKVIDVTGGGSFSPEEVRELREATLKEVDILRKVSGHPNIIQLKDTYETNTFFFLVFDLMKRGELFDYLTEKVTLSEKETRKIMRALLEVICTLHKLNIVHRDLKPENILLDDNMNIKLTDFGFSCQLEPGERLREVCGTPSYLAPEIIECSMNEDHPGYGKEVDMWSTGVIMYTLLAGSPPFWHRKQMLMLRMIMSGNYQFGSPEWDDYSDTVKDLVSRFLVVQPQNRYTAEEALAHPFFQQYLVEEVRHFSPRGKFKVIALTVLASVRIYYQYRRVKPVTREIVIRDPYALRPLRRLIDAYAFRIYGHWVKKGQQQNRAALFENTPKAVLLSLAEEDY
Method: as §1, §2, §3, §4, §5, §6, §7, §8

[19] = biological target: T19, PKC-beta1 (Homo sapiens, UniProt P05771); conditions: PKC-beta1, 1 µM; read-out: Residual Activity (%)
T19 construct: purchased ProQinase
Method: as §1, §2, §3, §4, §5, §6, §7, §8

[20] = biological target: T20, PRK1 (Homo sapiens, UniProt Q16512); conditions: PRK1, 1 µM; read-out: Residual Activity (%)
T20 construct: purchased ProQinase
Method: as §1, §2, §3, §4, §5, §6, §7, §8

[21] = biological target: T21, SGK3 (Homo sapiens, UniProt Q96BR1); conditions: SGK3, 1 µM; read-out: Residual Activity (%)
T21 construct: purchased ProQinase
T21 sequence (Q96BR1 whole entry): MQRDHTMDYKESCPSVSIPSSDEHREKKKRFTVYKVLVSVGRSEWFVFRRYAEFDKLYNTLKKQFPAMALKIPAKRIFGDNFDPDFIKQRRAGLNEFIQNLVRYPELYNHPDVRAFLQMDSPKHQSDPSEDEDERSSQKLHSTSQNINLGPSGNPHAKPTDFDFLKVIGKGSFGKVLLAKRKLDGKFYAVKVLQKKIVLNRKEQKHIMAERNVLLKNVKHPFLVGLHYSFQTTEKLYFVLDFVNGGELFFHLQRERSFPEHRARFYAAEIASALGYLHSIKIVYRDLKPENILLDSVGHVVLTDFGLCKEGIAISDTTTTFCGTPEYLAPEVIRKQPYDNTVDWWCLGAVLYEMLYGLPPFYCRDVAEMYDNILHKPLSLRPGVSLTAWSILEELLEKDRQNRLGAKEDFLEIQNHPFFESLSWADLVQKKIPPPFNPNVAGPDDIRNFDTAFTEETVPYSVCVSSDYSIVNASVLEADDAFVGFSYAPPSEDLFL
Method: as §1, §2, §3, §4, §5, §6, §7, §8

[22] = biological target: T22, SRC (GST-HIS-tag) (Homo sapiens, UniProt P12931); conditions: read-out: Residual Activity (%)
T22 construct: purchased ProQinase
Method: as §1, §2, §3, §4, §5, §6, §7, §8

[23] = biological target: T23, STK23 (Homo sapiens, UniProt Q9UPE1); conditions: STK23, 1 µM; read-out: Residual Activity (%)
T23 construct: purchased ProQinase
Method: as §1, §2, §3, §4, §5, §6, §7, §8

[24] = biological target: T24, TGFB-R2 (Homo sapiens, UniProt P37173); conditions: TGFB-R2, 1 µM; read-out: Residual Activity (%)
T24 construct: purchased ProQinase
Method: as §1, §2, §3, §4, §5, §6, §7, §8

[25] = biological target: T25, TYK2 (Homo sapiens, UniProt P29597); conditions: TYK2, 1 µM; read-out: Residual Activity (%)
T25 construct: purchased ProQinase
Method: as §1, §2, §3, §4, §5, §6, §7, §8

[26] = biological target: T26, p38-alpha (Homo sapiens, UniProt Q16539); conditions: read-out: Residual Activity (%)
T26 construct: purchased ProQinase
Method: as §1, §2, §3, §4, §5, §6, §7, §8

T1 sequence (P42684 whole entry): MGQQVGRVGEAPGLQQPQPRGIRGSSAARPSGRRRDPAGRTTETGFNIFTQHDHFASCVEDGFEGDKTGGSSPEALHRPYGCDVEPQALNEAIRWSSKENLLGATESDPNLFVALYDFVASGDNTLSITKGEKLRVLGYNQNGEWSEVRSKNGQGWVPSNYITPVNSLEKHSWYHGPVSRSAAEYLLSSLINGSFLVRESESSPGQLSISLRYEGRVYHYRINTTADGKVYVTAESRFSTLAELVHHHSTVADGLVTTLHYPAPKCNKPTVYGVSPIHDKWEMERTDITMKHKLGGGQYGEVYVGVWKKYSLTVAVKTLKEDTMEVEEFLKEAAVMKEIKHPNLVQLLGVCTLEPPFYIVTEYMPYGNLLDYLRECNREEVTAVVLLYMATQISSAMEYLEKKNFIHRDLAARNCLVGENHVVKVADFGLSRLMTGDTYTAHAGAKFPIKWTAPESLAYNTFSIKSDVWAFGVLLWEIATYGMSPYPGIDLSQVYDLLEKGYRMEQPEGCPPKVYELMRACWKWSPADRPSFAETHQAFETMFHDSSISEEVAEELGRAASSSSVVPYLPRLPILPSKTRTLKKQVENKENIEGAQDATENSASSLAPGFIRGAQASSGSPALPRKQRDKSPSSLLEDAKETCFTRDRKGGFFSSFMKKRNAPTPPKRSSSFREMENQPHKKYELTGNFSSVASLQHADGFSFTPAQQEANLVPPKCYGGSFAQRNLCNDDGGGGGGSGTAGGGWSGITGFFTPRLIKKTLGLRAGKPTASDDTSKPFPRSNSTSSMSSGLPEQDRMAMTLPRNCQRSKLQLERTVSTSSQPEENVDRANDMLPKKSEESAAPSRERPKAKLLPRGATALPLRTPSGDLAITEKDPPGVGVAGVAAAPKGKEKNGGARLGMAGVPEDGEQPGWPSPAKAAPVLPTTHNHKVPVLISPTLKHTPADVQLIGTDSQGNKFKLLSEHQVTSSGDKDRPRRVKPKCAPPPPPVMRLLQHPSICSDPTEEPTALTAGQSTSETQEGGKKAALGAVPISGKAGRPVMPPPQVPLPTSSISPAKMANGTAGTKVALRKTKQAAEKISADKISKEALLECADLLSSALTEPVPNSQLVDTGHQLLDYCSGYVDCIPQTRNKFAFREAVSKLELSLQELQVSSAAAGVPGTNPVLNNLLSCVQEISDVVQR

Compound `COc1ccc(-c2cc(C(=O)Nc3cc(-c4c(-c5ccc(F)cc5)noc4C(C)C)ccn3)n(CC3NCC(O)C3O)c2)cc1` (centres unmarked) [29d] has a remaining activity at 1 µM [1] of 110%, a remaining activity at 1 µM [2] of 100% and a remaining activity at 1 µM [3] of 90%. For the same compound, the remaining activity at 1 µM [4] was 112%, the remaining activity at 1 µM [5] was 103% and the remaining activity at 1 µM [6] was 74%. For the same compound, the remaining activity at 1 µM [7] was 97%, the remaining activity at 1 µM [8] was 104% and the remaining activity at 1 µM [9] was 80%. It also gave a remaining activity at 1 µM [10] of 104%, a remaining activity at 1 µM [11] of 138% and a remaining activity at 1 µM [12] of 103%. It also gave a remaining activity at 1 µM [13] of 94%, a remaining activity at 1 µM [14] of 88% and a remaining activity at 1 µM [15] of 108%. The remaining activity at 1 µM [16] was 96%, the remaining activity at 1 µM [17] was 108% and the remaining activity at 1 µM [18] was 90%. It also gave a remaining activity at 1 µM [19] of 116%, a remaining activity at 1 µM [20] of 94% and a remaining activity at 1 µM [21] of 97%. For the same compound, the remaining activity at 1 µM [22] was 125%, the remaining activity at 1 µM [23] was 96% and the remaining activity at 1 µM [24] was 69%. For the same compound, the remaining activity at 1 µM [25] was 85% and the remaining activity at 1 µM [26] was 17%.

Reference: PMC6429214, “Design, Synthesis and Biological Evaluation of Isoxazole-Based CK1 Inhibitors Modified with Chiral Pyrrolidine Scaffolds” (Molecules, 2019)
